The structures appear in SMILES notation. Where only a bound is given, the exact number is not on record here.

The first experiment relates to Nrf2. Nature of the experiment: Evaluation of Nrf2 activation ability (Nrf2d-LacZ / Keap1 HEK293 reporter, Beta-Glo luminescence). To be noted: Pharmacological Test Example 1, rated A/B/C. In kind it is cell-based, human. As to the method:
HEK293 cells constantly expressing Nrf2d-LacZ (human Nrf2 degron region fused to LacZ; Hirotsu et al, Genes to Cell, Vol. 16, pp. 406-415 (2011)) and human Keap1 were seeded 7,000 cells/27 μl/well on 384-well plates (Corning 384 Well Flat Clear Bottom White Polystyrene TC-Treated Microplates, Cat. #3707), and cultured overnight at 5% CO2, 37° C. in DMEM medium containing 10% FBS, 100 U/mL penicillin and 100 μg/mL streptomycin. 3 μL/well of a 0.1% DMSO solution of the compound of the invention was added to the cells, which were then cultured for 3 hours at 5% CO2, 37° C. Beta-Glo® reagent (Promega, Beta-Glo Assay System, Cat. #E4740) was added 15 μL/well and incubated for 1 hour at room temperature, and luminescence intensity was measured with a luminometer. Using CDDO-Im as a standard, Nrf2 activation ability was calculated given 100% as the luminescence under stimulus with 100 nM CDDO-Im.
By EC50 is commonly meant the concentration that produces a half-maximal response. High values mean lower potency in that assay, low ones higher potency in that assay. Turning to `CC(C)(C)OC(=O)N1CC=C(c2ccc(-c3cnn(-c4cc(O)n[s+]4[O-])c3)cn2)CC1` (single isomer, unassigned) [Example 449], the EC50 fell in the range of 1 to 5 µM.

In turn, `CN1CCOc2cc(-c3cnn(-c4cc(O)n[s+]4[O-])c3)cnc21` (single isomer, unassigned) [Example 450] gave an EC50 below 1 µM.

With `COc1nc(-c2ccc(N3CCCC3)nc2)ccc1-c1cnn(-c2cc(O)n[s+]2[O-])c1` (single isomer, unassigned) [Example 453], the EC50 is below 1 µM.

The experiment is the same for the next values; noted with them: rated A/B/C, Pharmacological Test Example 1.
As to `CN1CCOc2cc(-c3cc4cnn(-c5cc(O)n[s+]5[O-])c4cn3)cnc21` (single isomer, unassigned) [Example 243], the EC50 is below 1 µM.

In turn, `[O-][s+]1nc(O)cc1-n1cc2c(n1)CN(Cc1ccccc1)C2` (single isomer, unassigned) [Example 255] had an EC50 of 1 to 5 µM.

Compound `[O-][s+]1nc(O)cc1-n1cc2c(n1)CCN(Cc1ccccc1)C2` (single isomer, unassigned) [Example 256] yielded an EC50 of 1 to 5 µM.

Regarding `[O-][s+]1nc(O)cc1-n1ncc2c1CCN(CC1CCCCC1)C2` (single isomer, unassigned) [Example 257], the EC50 fell in the range of 1 to 5 µM.

`[O-][s+]1nc(O)cc1-n1ncc2c1CN(CC1CCCCC1)C2` (single isomer, unassigned) [Example 273] returned an EC50 below 1 µM.

For `[O-][s+]1nc(O)cc1-n1cc2c(n1)CN(CC1CCCCC1)C2` (single isomer, unassigned) [Example 275], the concentration for a half-maximal effect (EC50) lay within 1 to 5 µM.

`[O-][s+]1nc(O)cc1-n1ncc2ccccc21` (centres unmarked) [Example 1, 5-(indazol-1-yl)-1-oxo-1,2-thiazol-3-ol]: the EC50 lay within 1 to 5 µM.

Regarding `[O-][s+]1nc(O)cc1-n1ncc2cc(Br)ccc21` (centres unmarked) [Example 2, 5-(5-bromoindazol-1-yl)-1-oxo-1,2-thiazol-3-ol], the EC50 is below 1 µM.

For `COc1cc(-c2ccc3c(cnn3-c3cc(O)n[s+]3[O-])c2)ccn1` (centres unmarked) [Example 3, 5-[5-(2-methoxypyridin-4-yl)indazol-1-yl]-1-oxo-1,2-thiazol-3-ol], the EC50 is below 1 µM.

With `CN1CCOc2cc(-c3ccc4c(cnn4-c4cc(O)n[s+]4[O-])c3)cnc21` (centres unmarked) [Example 5, 5-[5-(4-methyl-2,3-dihydropyrido[3,2-b][1, 4]oxazin-7-yl)indazol-1-yl]-1-oxo-1,2-thiazol-3-ol], the concentration for a half-maximal effect (EC50) is below 1 µM.

For the compound `COc1ccc(-c2ccc3c(cnn3-c3cc(O)n[s+]3[O-])c2)c(C)n1` (centres unmarked) [Example 6], the EC50 lay in the range of 1 to 5 µM.

`[O-][s+]1nc(O)cc1-n1ncc2ccc(Br)cc21` (centres unmarked) [Example 7] came in with an EC50 of 1 to 5 µM.

The compound `CC(C)N1CCOc2cc(-c3ccc4c(cnn4-c4cc(O)n[s+]4[O-])c3)cnc21` (centres unmarked) [Example 8] returned an EC50 below 1 µM.

On to `COc1cc(Br)c2cnn(-c3cc(O)n[s+]3[O-])c2c1` (centres unmarked) [Example 9], for which the EC50 lay in the range of 1 to 5 µM.

`CC1COc2cc(-c3ccc4c(cnn4-c4cc(O)n[s+]4[O-])c3)cnc2N1` (centres unmarked) [Example 10] came in with a concentration giving a half-maximal response (EC50) below 1 µM.

For the compound `[O-][s+]1nc(O)cc1-n1ncc2cc(F)ccc21` (centres unmarked) [Example 11], the EC50 lay within 1 to 5 µM.

The compound `[O-][s+]1nc(O)cc1-n1ncc2cc(Cl)ccc21` (centres unmarked) [Example 12] showed an EC50 below 1 µM.

In turn, `[O-][s+]1nc(O)cc1-n1ncc2cc(C(F)(F)F)ccc21` (centres unmarked) [Example 14] registered an EC50 below 1 µM.

Turning to `Cc1nn(-c2cc(O)n[s+]2[O-])c2ccc(Cl)cc12` (centres unmarked) [Example 15], the EC50 lay within 1 to 5 µM.

As for `[O-][s+]1nc(O)cc1-n1ncc2ccccc21` (centres unmarked) [Example 16], the EC50 lay within 1 to 5 µM.

The compound `[O-][s+]1nc(O)cc1-n1ncc2ccccc21` (centres unmarked) [Example 17] displayed an EC50 of 5 to 10 µM.

Take `Cc1cc2cnn(-c3cc(O)n[s+]3[O-])c2cc1C` (centres unmarked) [Example 18]: the EC50 was below 1 µM.

Consider `N#Cc1ccc2c(cnn2-c2cc(O)n[s+]2[O-])c1` (centres unmarked) [Example 19], for which the EC50 is 1 to 5 µM.

Regarding `N#Cc1nn(-c2cc(O)n[s+]2[O-])c2ccc(Cl)cc12` (centres unmarked) [Example 21], the EC50 lay within 1 to 5 µM.

`O=C(c1c(Cl)cccc1Cl)c1nn(-c2cc(O)n[s+]2[O-])c2ccccc12` (centres unmarked) [Example 22] came in with an EC50 of 1 to 5 µM.

Compound `Cc1cccc2c1cnn2-c1cc(O)n[s+]1[O-]` (centres unmarked) [Example 23] registered an EC50 of 1 to 5 µM.

For the compound `COc1ccc2c(cnn2-c2cc(O)n[s+]2[O-])c1` (centres unmarked) [Example 24], the EC50 lay in the range of 1 to 5 µM.

In turn, `Cc1ccc2c(cnn2-c2cc(O)n[s+]2[O-])c1` (centres unmarked) [Example 25] displayed an EC50 of 5 to 10 µM.

As for `[O-][s+]1nc(O)cc1-n1ncc2cc(OCc3ccccc3)ccc21` (centres unmarked) [Example 26], the EC50 was 1 to 5 µM.

`[O-][s+]1nc(O)cc1-n1ncc2cc(C3CC3)ccc21` (centres unmarked) [Example 27]: the EC50 lay within 1 to 5 µM.

`[O-][s+]1nc(O)cc1-n1ncc2cc(-c3ccccc3)ccc21` (centres unmarked) [Example 28] showed an EC50 of 1 to 5 µM.

Turning to `[O-][s+]1nc(O)cc1-n1ncc2c(Cl)cccc21` (centres unmarked) [Example 29], the EC50 lay in the range of 1 to 5 µM.

For `[O-][s+]1nc(O)cc1-n1ncc2c(OCc3ccccc3)cccc21` (centres unmarked) [Example 30], the EC50 lay within 5 to 10 µM.

Take `[O-][s+]1nc(O)cc1-n1ncc2ccc(Cl)cc21` (centres unmarked) [Example 31]: the EC50 fell in the range of 1 to 5 µM.

On to `Cc1ccc2cnn(-c3cc(O)n[s+]3[O-])c2c1` (centres unmarked) [Example 32], for which the EC50 is 1 to 5 µM.

Take `[O-][s+]1nc(O)cc1-n1ncc2ccc(C(F)(F)F)cc21` (centres unmarked) [Example 33]: the EC50 was in the range of 1 to 5 µM.

For `Cc1cccc2cnn(-c3cc(O)n[s+]3[O-])c12` (centres unmarked) [Example 34], the EC50 was 1 to 5 µM.

For `[O-][s+]1nc(O)cc1-n1ncc2cccc(Cl)c21` (centres unmarked) [Example 37], the EC50 lay in the range of 1 to 5 µM.

As for `[O-][s+]1nc(O)cc1-n1ncc2cc(-c3cccnc3)ccc21` (centres unmarked) [Example 38], the EC50 was below 1 µM.

Compound `[O-][s+]1nc(O)cc1-n1ncc2cc(C3=CCC(F)(F)CC3)ccc21` (centres unmarked) [Example 39] came in with an EC50 below 1 µM.

In turn, `[O-][s+]1nc(O)cc1-n1ncc2cc(-c3ccccc3Cl)ccc21` (centres unmarked) [Example 40] registered an EC50 below 1 µM.

In turn, `[O-][s+]1nc(O)cc1-n1ncc2cc(-c3cncnc3)ccc21` (centres unmarked) [Example 41] came in with an EC50 of 1 to 5 µM.

For the compound `[O-][s+]1nc(O)cc1-n1ncc2cc(C3=CCOCC3)ccc21` (centres unmarked) [Example 42], the EC50 was below 1 µM.

On to `[O-][s+]1nc(O)cc1-n1ncc2cc(-c3ccccn3)ccc21` (centres unmarked) [Example 43], for which the EC50 is below 1 µM.

`CC(C)(C)OC(=O)N1CC=C(c2ccc3c(cnn3-c3cc(O)n[s+]3[O-])c2)CC1` (centres unmarked) [Example 44] returned an EC50 below 1 µM.

In the case of `Nc1ccc(-c2ccc3c(cnn3-c3cc(O)n[s+]3[O-])c2)cn1` (centres unmarked) [Example 45], the EC50 lay in the range of 1 to 5 µM.

In the case of `[O-][s+]1nc(O)cc1-n1ncc2cc(-c3ccc(C4CC4)nc3)ccc21` (centres unmarked) [Example 46], the half-maximal effective concentration (EC50) is below 1 µM.

The compound `COc1ccncc1-c1ccc2c(cnn2-c2cc(O)n[s+]2[O-])c1` (centres unmarked) [Example 47] displayed an EC50 of 1 to 5 µM.

`Cc1cncc(-c2ccc3c(cnn3-c3cc(O)n[s+]3[O-])c2)c1` (centres unmarked) [Example 49] registered a 50% effective concentration (EC50) below 1 µM.

For `Cn1cc(-c2ccc3c(cnn3-c3cc(O)n[s+]3[O-])c2)cn1` (centres unmarked) [Example 50], the EC50 was below 1 µM.

Take `[O-][s+]1nc(O)cc1-n1ncc2cc(-c3cn[nH]c3)ccc21` (centres unmarked) [Example 51]: the EC50 was 5 to 10 µM.

The compound `CN1CCN(c2cc(-c3ccc4c(cnn4-c4cc(O)n[s+]4[O-])c3)ccn2)CC1` (centres unmarked) [Example 52] yielded an EC50 below 1 µM.

`CN1CCN(c2cc(-c3ccc4c(cnn4-c4cc(O)n[s+]4[O-])c3)ccn2)CC1` (centres unmarked) [Example 53] showed an EC50 below 1 µM.

Compound `[O-][s+]1nc(O)cc1-n1ncc2cc(-c3cccnc3)ccc21` (centres unmarked) [Example 54] had an EC50 below 1 µM.

Turning to `COc1ccc2cnn(-c3cc(O)n[s+]3[O-])c2c1` (centres unmarked) [Example 55], the EC50 was below 1 µM.

Regarding `Cc1cncc(-c2ccc3c(cnn3-c3cc(O)n[s+]3[O-])c2)c1` (centres unmarked) [Example 56], the EC50 was below 1 µM.

In turn, `[O-][s+]1nc(O)cc1-n1ncc2cc(-c3ccncc3)ccc21` (centres unmarked) [Example 58] showed an EC50 below 1 µM.

`[O-][s+]1nc(O)cc1-n1ncc2cc(-c3ccnc(N4CCOCC4)c3)ccc21` (centres unmarked) [Example 59] showed an EC50 below 1 µM.

Consider `[O-][s+]1nc(O)cc1-n1ncc2cc(-c3cnc4ccoc4c3)ccc21` (centres unmarked) [Example 61], for which the EC50 was below 1 µM.

As to `CC(C)(C)OC(=O)N1CCC(c2ccc3c(cnn3-c3cc(O)n[s+]3[O-])c2)CC1` (centres unmarked) [Example 62], the EC50 was below 1 µM.

As for `O=C(NC1CC1)c1ccc(F)c(-c2ccc3c(cnn3-c3cc(O)n[s+]3[O-])c2)c1` (centres unmarked) [Example 63], the EC50 fell in the range of 5 to 10 µM.

In turn, `O=c1[nH]ccc2cc(-c3ccc4c(cnn4-c4cc(O)n[s+]4[O-])c3)ccc12` (centres unmarked) [Example 64] had an EC50 of 1 to 5 µM.

In turn, `CC(=O)NC1(c2ccc(-c3ccc4c(cnn4-c4cc(O)n[s+]4[O-])c3)cc2)CC1` (centres unmarked) [Example 65] showed a concentration for a half-maximal effect (EC50) of 5 to 10 µM.

On to `CC(=O)Nc1ccc(-c2ccc3c(cnn3-c3cc(O)n[s+]3[O-])c2)cc1` (centres unmarked) [Example 66], for which the concentration for a half-maximal effect (EC50) was in the range of 1 to 5 µM.

`O=C(NC1CC1)c1ccc(-c2ccc3c(cnn3-c3cc(O)n[s+]3[O-])c2)cc1` (centres unmarked) [Example 68] came in with a 50% effective concentration (EC50) of 1 to 5 µM.

For the compound `COc1cc2c(cnn2-c2cc(O)n[s+]2[O-])cc1Br` (centres unmarked) [Example 69], the EC50 was 1 to 5 µM.

For `COc1cc2c(cnn2-c2cc(O)n[s+]2[O-])cc1C1=CCN(C(=O)OC(C)(C)C)CC1` (centres unmarked) [Example 71], the 50% effective concentration (EC50) lay in the range of 1 to 5 µM.

For `COc1ncc(-c2ccc3c(cnn3-c3cc(O)n[s+]3[O-])c2)cc1Cl` (centres unmarked) [Example 73], the EC50 was below 1 µM.

Values taken from patent US10201531B2, “Indazolyl-oxo-isothiazole compounds” (MOCHIDA PHARMACEUTICAL CO., LTD., priority 2015, dated 2019).
